For series [1], the system named is HDF. Kind of series: Induction of JNK phosphorylation in HDF cells at 10 uM incubated at 0.5 to 24 hrs by Western blot analysis. The series is classed as cell-based. The settings on record: Homo sapiens, filed as activator, time 0.5-24 hrs.
Series [2] deals with Mitogen-activated protein kinase; ERK1/ERK2 (Homo sapiens) (UniProt P27361+P28482). Kind of series: Induction of ERK1/2 phosphorylation in HDF cells at 10 uM incubated at 0.5 to 24 hrs by Western blot analysis. The class given is cell-based. The settings on record: filed as activator, time 0.5-24 hrs.
Mitogen-activated protein kinase; ERK1/ERK2 (Homo sapiens), sequence (P27361 whole entry, looked up): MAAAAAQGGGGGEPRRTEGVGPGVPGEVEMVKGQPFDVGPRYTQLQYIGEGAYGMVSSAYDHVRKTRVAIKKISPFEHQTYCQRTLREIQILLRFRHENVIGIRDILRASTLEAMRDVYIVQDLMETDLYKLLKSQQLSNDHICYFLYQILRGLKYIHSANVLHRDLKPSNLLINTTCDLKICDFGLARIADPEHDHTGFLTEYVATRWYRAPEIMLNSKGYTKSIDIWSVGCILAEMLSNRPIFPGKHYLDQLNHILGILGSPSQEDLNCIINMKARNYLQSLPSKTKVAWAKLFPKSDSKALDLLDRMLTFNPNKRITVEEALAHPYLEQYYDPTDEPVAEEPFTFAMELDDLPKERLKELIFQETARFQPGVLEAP
Mitogen-activated protein kinase; ERK1/ERK2 (Homo sapiens), sequence (P28482 whole entry, looked up): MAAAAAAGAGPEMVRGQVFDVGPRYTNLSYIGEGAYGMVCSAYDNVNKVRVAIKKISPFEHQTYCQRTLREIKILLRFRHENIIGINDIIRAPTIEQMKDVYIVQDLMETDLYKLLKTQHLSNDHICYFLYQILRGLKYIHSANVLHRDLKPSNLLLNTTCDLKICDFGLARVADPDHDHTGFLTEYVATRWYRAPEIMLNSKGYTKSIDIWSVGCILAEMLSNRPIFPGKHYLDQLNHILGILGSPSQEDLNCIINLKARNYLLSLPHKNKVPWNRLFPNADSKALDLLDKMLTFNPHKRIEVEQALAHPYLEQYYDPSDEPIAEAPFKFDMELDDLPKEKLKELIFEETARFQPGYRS
The test system of another series is NHDF. Kind of series: Cytotoxicity against HDF cells assessed as reduction in cell viability at 10 uM incubated for 24 to 48 hrs by MTT assay. The series is classed as toxicity, cell-based. The settings on record: human, time 24-48 hrs. A general note: Formazan colour is commonly taken as a measure of viable cells.
In series [3] the test system is HDF. Kind of series: Induction of p38 phosphorylation in HDF cells at 10 uM incubated at 0.5 to 24 hrs by Western blot analysis. The class given is cell-based. The settings on record: Homo sapiens, time 0.5-24 hrs.

Active and inactive are the calls of the source. The calls are words filed in the database; no cut-off is given here.

Regarding `CC(=O)O[C@@H]1[C@H](O)C2=C(C(=O)N([C@H](C(=O)O)C(C)C)C2)[C@@]2(C)CCCC(C)(C)[C@H]12`, the result (with HDF [1]; in series [2]) was Active. In addition, the Activity result with NHDF is “Non-Toxic”. The result with HDF [3] was inactive.

As for `CC(=O)O[C@@H]1[C@H](O)C2=C(C(=O)N([C@@H](C)C(=O)O)C2)[C@@]2(C)CCCC(C)(C)[C@H]12`, the result (with HDF [1]; in series [2]) was Active. In addition, in the series on NHDF, the Activity entry is “Non-Toxic”. In addition, the outcome in the series on HDF [3] was inactive.

For the compound `CC(=O)O[C@@H]1[C@H](O)C2=C(C(=O)N([C@H](C(=O)O)[C@@H](C)O)C2)[C@@]2(C)CCCC(C)(C)[C@H]12`, the outcome (in the series with HDF [1]; in series [2]) was Active. Moreover, in the series on NHDF, the Activity result is “Non-Toxic”. Also, the result in the series with HDF [3] was inactive.

Take `CC(=O)O[C@@H]1[C@H](O)C2=C(C(=O)N([C@@H](Cc3ccccc3)C(=O)O)C2)[C@@]2(C)CCCC(C)(C)[C@H]12`: the result (in the series on HDF [1]; in series [2]) was Active. For the same compound, the Activity result with NHDF is reported as “Non-Toxic”. The outcome with HDF [3] was inactive.

As to `CC[C@H](C)[C@@H](C(=O)O)N1CC2=C(C1=O)[C@@]1(C)CCCC(C)(C)[C@@H]1[C@H](OC(C)=O)[C@@H]2O`, the result (with HDF [1]; in series [2]) was Active. Moreover, the Activity result with NHDF is “Non-Toxic”. Besides, the result in the series on HDF [3] was inactive.

Take `CC(=O)O[C@@H]1[C@H](O)C2=C(C(=O)N(CC(=O)O)C2)[C@@]2(C)CCCC(C)(C)[C@H]12`: the result (in the series with HDF [1]; in series [2]) was Active. Moreover, in the series with NHDF, the Activity entry is “Non-Toxic”. Further, the outcome with HDF [3] was inactive.

Regarding `CC(=O)O[C@@H]1[C@H](O)C2=C(C(=O)N([C@@H](CC(C)C)C(=O)O)C2)[C@@]2(C)CCCC(C)(C)[C@H]12`, the result (in the series on HDF [1]; in series [2]) was Active. In the series with NHDF, the Activity result was “Non-Toxic”. Moreover, the result in the series with HDF [3] was inactive.

Values taken from ChEMBL document CHEMBL5579902, “Medullins A-H, Sesquiterpenes from Perenniporia medulla-panis, and Their Cellular Signaling Mechanism in HDF Cells” (J Nat Prod, 2024).
